Laboratory results as given in the Deep4Chem optical property database.
“And” between values parts separate entries of the source, which are not always exact repeats. Equal entries are not always repeated. Blank lines part the entries; values can stand above or below the molecule they belong to.

Assay: solvent given as SMILES

SMILES: c1ccc(Nc2nc(Nc3ccccc3)nc(Nc3ccc4cc5ccccc5cc4c3)n2)cc1
fluorescence lifetime (in C1COCCO1): 13.3 ns | fluorescence lifetime (in CCOC(C)=O): 9 ns

SMILES: CCCCNc1nc(/C=C/c2ccccc2)[n+]([O-])c2c1CCCC2
fluorescence lifetime (in ClCCl): 8.9 ns

SMILES: COc1ccc(OC)cc1
fluorescence lifetime (in C1CCCCC1): 3.8 ns

SMILES: CC1=C(C(C)(C)C)C(C)=[N+]2C1=C(C)c1c(C)c(C(C)(C)C)c(C)n1[B-]2(F)F
fluorescence lifetime (in C1CCCCC1): 3.91 ns | fluorescence lifetime (in C1CCOC1): 4.15 ns | fluorescence lifetime (in C1COCCO1): 4.37 ns | fluorescence lifetime (in CC#N): 4.27 ns | fluorescence lifetime (in CC(C)=O): 4.34 ns | fluorescence lifetime (in CC(C)CC(C)(C)C): 4.43 ns | fluorescence lifetime (in CCC(C)C): 4.19 ns | fluorescence lifetime (in CCCC(C)=O): 4.54 ns | fluorescence lifetime (in CCCCCC): 4.35 ns | fluorescence lifetime (in CCCCCCCCO): 4.68 ns | fluorescence lifetime (in CCCCCCO): 4.59 ns | fluorescence lifetime (in CCCCO): 4.33 ns | fluorescence lifetime (in CCCCOC(C)=O): 4.51 ns | fluorescence lifetime (in CCCO): 4.19 ns | fluorescence lifetime (in CCO): 4.09 ns | fluorescence lifetime (in CCOC(C)=O): 4.31 ns | fluorescence lifetime (in CCOCC): 4.27 ns | fluorescence lifetime (in CN(C)C=O): 4.69 ns | fluorescence lifetime (in CNC=O): 4.45 ns | fluorescence lifetime (in CO): 4.21 ns | fluorescence lifetime (in COC(C)=O): 4.44 ns | fluorescence lifetime (in OCC(F)(F)F): 4.64 ns

SMILES: CCN(CC)c1ccc2c(C)cc(=O)oc2c1
fluorescence lifetime (in C1CCCCC1): 2.8 ns | fluorescence lifetime (in CC#N): 3.4 ns | fluorescence lifetime (in CCCCCCCCO): 3.69 ns | fluorescence lifetime (in CCCCCCO): 3.68 ns | fluorescence lifetime (in CCCCO): 3.55 ns | fluorescence lifetime (in CCCO): 3.48 ns | fluorescence lifetime (in CCO): 3.15 ns and 2.04 ns and 3.1 ns | fluorescence lifetime (in CCOC(C)=O): 3.1 ns | fluorescence lifetime (in CO): 1.94 ns | fluorescence lifetime (in O): 0.36 ns | fluorescence lifetime (in OCC(O)CO): 3.8 ns

SMILES: CC1=CC(C)=[N+]2C1=C(c1ccc(I)cc1)c1c(C)cc(C)n1[B-]2(Oc1ccc(Cl)cc1)Oc1ccc(Cl)cc1
fluorescence lifetime (in ClC(Cl)Cl): 0.37 ns

SMILES: CN(C)c1ccc(/C=C/C=C2\CC/C(=C\c3ccc(N(C)C)cc3)C2=O)cc1
fluorescence lifetime (in C1CCOC1): 0.42 ns | fluorescence lifetime (in CC#N): 0.91 ns | fluorescence lifetime (in CC(C)=O): 1.15 ns | fluorescence lifetime (in CC(C)O): 1.24 ns | fluorescence lifetime (in CCCCO): 1.25 ns | fluorescence lifetime (in CCCCOC(C)=O): 0.63 ns | fluorescence lifetime (in CCCO): 1.13 ns | fluorescence lifetime (in CCO): 0.82 ns | fluorescence lifetime (in CCOC(=O)c1ccccc1): 0.83 ns | fluorescence lifetime (in CCOC(C)=O): 0.71 ns | fluorescence lifetime (in CCOCC): 0.31 ns | fluorescence lifetime (in CN(C)C=O): 1.32 ns | fluorescence lifetime (in CO): 0.3 ns | fluorescence lifetime (in CS(C)=O): 1.4 ns | fluorescence lifetime (in Cc1ccccc1): 0.36 ns | fluorescence lifetime (in ClC(Cl)(Cl)Cl): 0.29 ns | fluorescence lifetime (in ClC(Cl)Cl): 0.98 ns | fluorescence lifetime (in ClCCl): 1.13 ns | fluorescence lifetime (in Clc1ccccc1Cl): 0.83 ns | fluorescence lifetime (in S=C=S): 0.43 ns | fluorescence lifetime (in c1ccccc1): 0.38 ns | fluorescence lifetime (in c1ccncc1): 1.26 ns

SMILES: O=C([O-])c1ccccc1-c1c2cc(I)c(=O)c(I)c-2oc2c(I)c([O-])c(I)cc12
fluorescence lifetime (in CC(C)O): 0.66 ns | fluorescence lifetime (in CCO): 0.565 ns | fluorescence lifetime (in CO): 0.5 ns | fluorescence lifetime (in O): 0.115 ns

SMILES: CN(C)c1ccc(-c2cc3c(s2)c(C(=O)c2ccccc2)cc(=O)n3Cc2ccccc2)cc1
fluorescence lifetime (in ClCCl): 1.01 ns

SMILES: COc1ccc(/C=C/c2nc3c4ccccc4c4ccccc4c3o2)cc1
fluorescence lifetime (in CC#N): 0.97 ns

SMILES: Cc1ccc(S(=O)(=O)/N=c2\oc3cccc4c5c(-c6ccccc6)oc6cccc(c(c2-c2ccccc2)c34)c65)cc1
fluorescence lifetime (in ClC(Cl)Cl): 3.4 ns

Second part, the molecule after the results:

fluorescence lifetime (in CC#N): 3.9 ns
SMILES: Cc1ccc2c(nc3c(=O)n(C)c(=O)nc-3n2C)c1C

fluorescence lifetime (in CCO): 20 ns
SMILES: c1ccc2cc3cnccc3cc2c1

fluorescence lifetime (in CC1CCCCC1): 0.358 ns | fluorescence lifetime (in CC#N): 0.003 ns | fluorescence lifetime (in CO): 0.01 ns
SMILES: COC(=O)C(NC(=O)OC(C)(C)C)c1ccc2oc(-c3ccc(OC(=O)c4ccccc4)cc3OC(=O)c3ccccc3)nc2c1 (centres undefined)

fluorescence lifetime (in CC#N): 3.68 ns
SMILES: C=Cc1cc2cc3c(cc2oc1=O)OCO3

fluorescence lifetime (in O): 3.1 ns
SMILES: O=C(O)c1cccc2c(=O)c3ccccc3[nH]c12

fluorescence lifetime (in ClCCl): 15.3 ns
SMILES: CCCCCCCCCCOc1ccc(C#Cc2cc3c(C#Cc4ccc(OCCCCCCCCCC)cc4)c(C#Cc4ccc(OCCCCCCCCCC)cc4)c4cc(C#Cc5ccc(OCCCCCCCCCC)cc5)cc5c(C#Cc6ccc(OCCCCCCCCCC)cc6)c(C#Cc6ccc(OCCCCCCCCCC)cc6)c(c2)c3c45)cc1

fluorescence lifetime (in ClCCl): 2.19 ns
SMILES: Nc1cccc2c1ccc1[n+]2[B-](F)(F)n2c-1cc1c3ccccc3c3ccccc3c12

fluorescence lifetime (in CCCO): 7.8 ns
SMILES: CCOC(=O)c1ccc2c(c1)n(C)c1c3ccc(C(=O)OCC)cc3n(C)c21

fluorescence lifetime (in ClC(Cl)Cl): 1.04 ns
SMILES: CC1(C)c2ccccc2-c2ccc(N3c4ccc(-c5ccc(/C=C6\C(=O)c7ccc(C(=O)O)cc7C6=O)s5)cc4C4CCCC43)cc21 (centres undefined)

fluorescence lifetime (in CS(C)=O): 10.8 ns
SMILES: O=c1c2cc(S(=O)(=O)Cl)ccc2[nH]c2ccc(S(=O)(=O)Cl)cc12
